In publication PMC10447287, “Optimisation of Pharmaceutical Cocrystal Dissolution Performance through a Synergistic Precipitation Inhibition” (Pharmaceutical Research, 2023):

Columns and labels:
[1] = Particle size distribution of sieved powders; type: physicochemical; settings: sieved particles < 250 μm
Method: All samples (i.e., FFA, FFA-NIC cocrystal and FFA-TP cocrystal) used in the dissolution tests were slightly ground by a mortar and pestle and sieved by a 60-mesh sieve (below 250 μm) to reduce the influence of particle size on the dissolution rates. The particle size distributions of the test samples were measured using a SYNC Analyzer (MICROTRAC Retsch GmbH, Hann, Germany). The particle size distributions (D10, D50, D90 and mean particle size) of the solid particles were compared. The data were analysed by the Microtrac FLEX software (12.0.0.1).

[2] = Ionisation constants of flufenamic acid; type: physicochemical; settings: at pH 4.5
[3] = Equilibrium solubility of FFA in DDW and PBS in the absence and presence of a predissolved polymer or a combination; type: physicochemical
Method: The FFA solubility was determined by suspending an excess amount of crystalline materials of FFA I in small vials with 20 mL of a selected dissolution medium (i.e., DDW or PBS pH 4.5) in the absence and presence of a predissolved single polymer and a combination. The detailed polymers and their corresponding concentrations were 0.2 mg/mL of PVP-VA, 1 mg/mL of PEG and 0.2 mg/mL of SLP, which were based on the previous study and the solubility curve obtained in the preliminary study in Figure S5 in the supporting materials. All of the suspensions were kept at 37 ± 0.5°C in a water bath with a shaking rate of 150 rpm for 24 h. Each of the supernatants was separated from excess solids in solution by centrifugation at 13,000 RPM for 1 min in an MSB 010.CX2.5 centrifuge (MSE Ltd., London, U.K.). Subsequently, the supernatant was diluted using ethanol, and the FFA concentration was determined using HPLC. The solid residues retrieved from the tests were dried for 24 h at ambient temperature and then analysed by PXRD. Each of the experiments was conducted in triplicate, and data were reported as an average concentration. Additionally, the FFA solubility in PBS pH 6.8 at 37 ± 0.5°C was also measured in triplicate. The solids were scanned by D2 phaser diffractometer (Bruker U.K. Limited, Coventry, UK) with […] radiation operating at voltage of 30 kV and current of 10 mA. The scanning angle ranged from 2°-40° of 2θ. The scanning time per step was 0.4 s. The scan step size was 0.02° of 2θ.

[4] = parameters: method as in doi:10.1007/s10953-010-9642-6; settings: cited from earlier work
[5] = Dissolution tests of powders in DDW with predissolved polymer or combination (USP type II paddle); type: physicochemical; settings: for solid residues after dissolution tests (PXRD): DDW in the absence or presence of predissolved polymers; for FFA concentration in solution after 4 h / FFA DPP (dissolution performance parameter): DDW; for FFA concentration in solution after 4 h: no polymer, powder dissolution; for FFA DPP (dissolution performance parameter): 0-4 h, reference same powder in DDW
Method: In vitro dissolution tests were performed with a USP type II paddle apparatus (DT 126 light, Erweka GmbH, Germany) at 37 ± 0.5°C with a paddle speed of 50 rpm in 400 mL of DDW in the absence and presence of a predissolved polymer (i.e., 0.2 mg/mL of PVP-VA, 1 mg/mL of PEG, 0.2 mg/mL of SLP) or a combination of two polymers (i.e., 0.2 mg/mL PVP-VA + 1 mg/mL PEG, […]).
71.7 mg of FFA-NIC cocrystal powders with the equivalent of 50 mg FFA I powders were used in each of the dissolution tests. Samples of 1 ± 0.1 mL were withdrawn from the dissolution vessel at the predefined time points of 5, 10, 15, 30, 60, 120, 180 and 240 min. The supernatant of each of the samples was separated from the excess solids by centrifugation at 13,000 RPM for 1 min in an MSE Micro Centaur. HPLC was used to determine the concentrations of FFA and NIC in solution. Solid residues obtained from the experiments were dried at room temperature and analysed by PXRD. All experiments were repeated in triplicate.
For comparison, the above dissolution tests were also repeated using 50 mg of pure FFA I powders and 82.0 mg of FFA-TP cocrystal powders.
DPP was used to evaluate the dissolution profile of the test powders in comparison to a reference system, which is defined as,4 DPP=AUCC(t)-AUCCR(t)/AUCCR(t)×100% where AUCC(t) is the area under the curve (AUC) of a dissolution profile C(t) , indicating the amount of drug dissolved is maintained over the period of the dissolution time from 0 to t, and AUCCR(t) is the AUC of a reference dissolution profile CR(t) .
The solids were scanned by D2 phaser diffractometer (Bruker U.K. Limited, Coventry, UK) with […] radiation operating at voltage of 30 kV and current of 10 mA. The scanning angle ranged from 2°-40° of 2θ. The scanning time per step was 0.4 s. The scan step size was 0.02° of 2θ.

[6] = predissolved PVP-VA (0.2 mg/mL)
[7] = predissolved SLP (0.2 mg/mL) + PVP-VA (0.2 mg/mL)

O=C(O)c1ccccc1Nc1cccc(C(F)(F)F)c1 [FFA, Flufenamic acid]
D10 [1]: 5.19 μm
D50 [1]: 13.58 μm
D90 [1]: 84.86 μm
Mean particle size [1]: 31.71 μm
fraction in the neutral form [2]: more than 75%
solubility at 24 h ([3]; DDW, 37 °C, aqueous with cosolvent or surfactant or cyclodextrin, thermodynamic from solid, DDW, predissolved PEG (1 mg/mL) + PVP-VA (0.2 mg/mL), 37°C): 20.9 ± 5.35 µg/mL
solubility at 24 h ([3]; DDW, 37 °C, aqueous with cosolvent or surfactant or cyclodextrin, thermodynamic from solid, DDW, predissolved SLP (0.2 mg/mL) + PVP-VA (0.2 mg/mL), 37°C): 119 ± 3.3 µg/mL
solubility at 24 h ([3]; DDW, 37 °C, aqueous with cosolvent or surfactant or cyclodextrin, thermodynamic from solid, predissolved PEG (1 mg/mL)): 17.8 ± 1.72 µg/mL
solubility at 24 h ([3]; DDW, 37 °C, aqueous with cosolvent or surfactant or cyclodextrin, thermodynamic from solid, predissolved PVP-VA (0.2 mg/mL)): 12 ± 1.4 µg/mL
solubility at 24 h ([3]; DDW, absence of polymer, 37°C): 10.1 ± 0.79 µg/mL
solubility at 24 h ([3]; DDW, predissolved SLP (0.2 mg/mL), 37°C): 111 ± 16.2 µg/mL
solubility at 24 h ([3]; PBS pH 4.5, 37 °C, pH 4.5, aqueous buffer, thermodynamic from solid, PBS pH 4.5, absence of polymer, 37°C): 18.3 ± 2.39 µg/mL
solubility at 24 h ([3]; PBS pH 4.5, 37 °C, pH 4.5, aqueous with cosolvent or surfactant or cyclodextrin, thermodynamic from solid, PBS pH 4.5, predissolved PEG (1 mg/mL) + PVP-VA (0.2 mg/mL), 37°C): 11.4 ± 0.22 µg/mL
solubility at 24 h ([3]; PBS pH 4.5, 37 °C, pH 4.5, aqueous with cosolvent or surfactant or cyclodextrin, thermodynamic from solid, PBS pH 4.5, predissolved PVP-VA (0.2 mg/mL), 37°C): 11 ± 1.32 µg/mL
solubility at 24 h ([3]; PBS pH 4.5, 37 °C, pH 4.5, aqueous with cosolvent or surfactant or cyclodextrin, thermodynamic from solid, PBS pH 4.5, predissolved SLP (0.2 mg/mL) + PVP-VA (0.2 mg/mL), 37°C): 41.1 ± 4.2 µg/mL
solubility at 24 h ([3]; PBS pH 4.5, 37 °C, pH 4.5, aqueous with cosolvent or surfactant or cyclodextrin, thermodynamic from solid, PBS pH 4.5, predissolved SLP (0.2 mg/mL), 37°C): 41.9 ± 2.5 µg/mL
solubility at 24 h ([3]; PBS pH 4.5, pH 4.5, PBS pH 4.5, predissolved PEG (1 mg/mL), 37°C): 9.01 ± 0.26 µg/mL
solubility ([3]; PBS pH 6.8, 37 °C, pH 6.8, aqueous buffer, thermodynamic from solid, PBS pH 6.8, absence of polymer, 37°C): 741.1 ± 6.27 µg/mL
solid form of residues after solubility tests (PXRD) ([3]; after 24 h in various media): remained the form I
isoelectric point pH [4]: 3.88 ± 0.03
pKa1 (basic group) [4]: 2.92 ± 0.01
pKa2 (acidic group) [4]: 4.84 ± 0.04
solid residues after dissolution tests (PXRD) [5]: no phase transformation
FFA concentration in solution after 4 h [5]: 4.99 µg/mL
FFA DPP (dissolution performance parameter) [5, 6]: -24%
FFA DPP (dissolution performance parameter) [5, 7]: 50%
FFA DPP (dissolution performance parameter) ([5]; predissolved SLP (0.2 mg/mL)): 30%

Cn1c(=O)c2[nH]cnc2n(C)c1=O.O=C(O)c1ccccc1Nc1cccc(C(F)(F)F)c1 [FFA-TP cocrystal]
D10 [1]: 5.25 μm
D50 [1]: 12.32 μm
D90 [1]: 56.64 μm
Mean particle size [1]: 23.92 μm
solid residues after dissolution tests (PXRD) [5]: the same as the starting materials
FFA concentration in solution after 4 h [5]: 8.35 µg/mL
FFA DPP (dissolution performance parameter) ([5]; predissolved PEG (1 mg/mL) + PVP-VA (0.2 mg/mL)): 12%
FFA DPP (dissolution performance parameter) ([5]; predissolved PEG (1 mg/mL)): 24%
FFA DPP (dissolution performance parameter) [5, 6]: -17%
FFA DPP (dissolution performance parameter) [5, 7]: 23%
FFA DPP (dissolution performance parameter) ([5]; predissolved SLP (0.2 mg/mL)): 3%
